Legend:
Settings in all cases: stereoisomer not certain
[1] = RP, Waters CORTECS T3, 100 × 2.1 mm, 2.7 µm, 0.3 mL/min, estimated dead time 0.73 min; A: water + 0.1% formic acid, pH 3; B: methanol + 0.1% formic acid, pH 3; gradient (min/%B) 0/5 5/5 25/100 30/100 30.1/5 35/5
[2] = RP, Waters CORTECS T3, 100 × 2.1 mm, 2.7 µm, 0.3 mL/min, estimated dead time 0.73 min; A: water + 0.1% formic acid, pH 3; B: methanol + 0.1% formic acid, pH 3; gradient (min/%B) 0/0 1/0 6/5 30/100 35/100 35.1/0 40/0
[3] = RP, Waters ACQUITY UPLC BEH C18, 100 × 2.1 mm, 1.7 µm, 0.1 mL/min, estimated dead time 2.2 min; A: water + 0.045% formic acid + 0.11% ammonium hydroxide, pH 7; B: methanol; gradient (min/%B) 0/5 5/5 25/95 25.1/100 35/100 35.1/5 45/5
[4] = RP, Waters ACQUITY UPLC BEH C18, 100 × 2.1 mm, 1.7 µm, 0.2 mL/min, estimated dead time 1.1 min; A: water + 0.025% formic acid + 20 mM ammonium acetate + 0.055% ammonium hydroxide, pH 7; B: methanol; gradient (min/%B) 0/5 5/5 25/100 30/100 30.1/5 35/5
[5] = RP, Waters CORTECS T3, 100 × 2.1 mm, 2.7 µm, 0.3 mL/min, estimated dead time 0.73 min; A: water + 0.1% formic acid, pH 3; B: methanol + 0.1% formic acid, pH 3; gradient (min/%B) 0/5 5/5 25/95 25.1/100 35/100 35.1/5 45/5
[6] = RP, Waters CORTECS T3, 100 × 2.1 mm, 2.7 µm, 0.3 mL/min, estimated dead time 0.73 min; A: water + 0.1% formic acid, pH 3; B: methanol + 0.1% formic acid, pH 3; gradient (min/%B) 0/0 5/0 25/100 30/100 30.1/0 35/0
[7] = RP, Waters CORTECS T3, 100 × 2.1 mm, 2.7 µm, 0.1 mL/min, estimated dead time 2.2 min; A: water + 0.1% formic acid, pH 3; B: methanol + 0.1% formic acid, pH 3; gradient (min/%B) 0/0 1/0 6/5 30/100 35/100 35.1/0 40/0
[8] = RP, Waters CORTECS T3, 100 × 2.1 mm, 2.7 µm, 0.2 mL/min, estimated dead time 1.1 min; A: water + 0.045% formic acid + 0.11% ammonium hydroxide, pH 7; B: methanol; gradient (min/%B) 0/5 5/5 25/95 25.1/100 35/100 35.1/5 45/5
[9] = RP, Waters ACQUITY UPLC BEH C18, 100 × 2.1 mm, 1.7 µm, 0.1 mL/min, estimated dead time 2.2 min; A: water + 0.1% formic acid, pH 3; B: methanol + 0.1% formic acid, pH 3; gradient (min/%B) 0/5 5/5 25/100 30/100 30.1/5 35/5
[10] = RP, Waters CORTECS T3, 100 × 2.1 mm, 2.7 µm, 0.1 mL/min, estimated dead time 2.2 min; A: water + 0.1% formic acid, pH 3; B: methanol + 0.1% formic acid, pH 3; gradient (min/%B) 0/5 5/5 25/95 25.1/100 35/100 35.1/5 45/5
[11] = RP, Waters CORTECS T3, 100 × 2.1 mm, 2.7 µm, 0.25 mL/min, estimated dead time 0.88 min; A: water + 0.1% formic acid, pH 3; B: methanol + 0.1% formic acid, pH 3; gradient (min/%B) 0/5 5/5 25/95 25.1/100 35/100 35.1/5 45/5
[12] = RP, Waters CORTECS T3, 100 × 2.1 mm, 2.7 µm, 0.25 mL/min, estimated dead time 0.88 min; A: water + 0.1% formic acid, pH 3; B: methanol + 0.1% formic acid, pH 3; gradient (min/%B) 0/0 1/0 6/5 30/100 35/100 35.1/0 40/0
[13] = RP, Waters CORTECS T3, 100 × 2.1 mm, 2.7 µm, 0.15 mL/min, estimated dead time 1.5 min; A: water + 0.1% formic acid, pH 3; B: methanol + 0.1% formic acid, pH 3; gradient (min/%B) 0/0 1/0 6/5 30/100 35/100 35.1/0 40/0
[14] = RP, Thermo Scientific Hypercarb, 150 × 2.1 mm, 5 µm, 0.1 mL/min, estimated dead time 3.3 min; A: water + 0.1% formic acid, pH 3; B: methanol + 0.1% formic acid, pH 3; gradient (min/%B) 0/5 5/5 20/100 35/100 35.1/5 45/5
[15] = RP, Waters CORTECS T3, 100 × 2.1 mm, 2.7 µm, 0.2 mL/min, estimated dead time 1.1 min; A: water + 0.1% formic acid, pH 3; B: methanol + 0.1% formic acid, pH 3; gradient (min/%B) 0/0 1/0 6/5 30/100 35/100 35.1/0 40/0
[16] = RP, Waters ACQUITY UPLC BEH C18, 100 × 2.1 mm, 1.7 µm, 0.2 mL/min, estimated dead time 1.1 min; A: water + 0.1% formic acid, pH 3; B: methanol + 0.1% formic acid, pH 3; gradient (min/%B) 0/5 5/5 25/100 30/100 30.1/5 35/5
[17] = RP, Waters CORTECS T3, 100 × 2.1 mm, 2.7 µm, 0.2 mL/min, estimated dead time 1.1 min; A: water + 0.1% formic acid, pH 3; B: methanol + 0.1% formic acid, pH 3; gradient (min/%B) 0/0 1/0 6/5 30/100 35/100 35.1/0 40/0; remark: listed apart in the source

Row | LC retention time [1] | LC retention time [2] | LC retention time [3] | LC retention time [4] | LC retention time [5] | LC retention time [6] | LC retention time [7] | LC retention time [8] | LC retention time [9] | LC retention time [10] | LC retention time [11] | LC retention time [12] | LC retention time [13] | LC retention time [14] | LC retention time [15] | LC retention time [16] | LC retention time [17] | SMILES
1 | 24.6 min | 29 min | 30.2 min | 26.3 min | 25.6 min | 24.8 min | 26.2 min | 26.2 min | 29.3 min |  |  |  |  |  |  |  |  | CCCCCCCCC=CCCCCCCCC(=O)OCC(O)CO (racemic) [1-OLEOYL-RAC-GLYCEROL]
2 |  |  |  |  |  |  |  |  |  | 2.8 min |  |  |  |  |  |  |  | Nc1ccccc1O [2-AMINOPHENOL]
3 |  |  |  |  |  |  |  |  |  |  | 2.78 min |  |  |  |  |  |  | COc1cc(C(O)C(=O)O)ccc1O (stereo unspecified) [3-METHOXY-4-HYDROXYMANDELATE]
4 |  |  | 2.75 min | 3.62 min |  | 0.89 min |  | 3.8 min | 2.69 min |  |  | 1.09 min | 1.78 min | 24.5 min | 1.34 min |  |  | Cn1cnc(=N)c2[nH]cnc21 [3-METHYLADENINE]
5 | 8.56 min | 10.1 min |  |  | 8.59 min | 10 min | 10.1 min |  | 13.3 min | 13.4 min |  | 10.8 min | 12.9 min | 30.8 min | 11.5 min |  |  | O=C(O)Cc1c[nH]c2ccc(O)cc12 [5-HYDROXYINDOLEACETATE]
6 |  | 0.9 min |  | 2.21 min |  |  |  | 1.35 min | 2.71 min |  |  | 1.06 min |  | 16.9 min |  |  |  | Cc1cnc(=O)[nH]c1N [5-METHYLCYTOSINE]
7 |  |  |  |  |  |  |  |  |  |  | 1.08 min |  |  |  |  |  |  | O=C(O)C(O)C(O)C(O)C(O)COP(=O)(O)O (stereo unspecified) [6-PHOSPHOGLUCONIC ACID]
8 | 18.1 min | 21.1 min | 22.9 min | 19.4 min | 18.6 min | 18.6 min | 19.9 min | 19.9 min | 22.3 min | 22.9 min |  | 21.6 min | 23.6 min |  | 22.4 min |  |  | CC(=O)OCC(=O)C1(O)CCC2C3CCC4=CC(=O)CCC4(C)C3C(O)CC21C (stereo unspecified) [CORTISOL 21-ACETATE]
9 | 16.9 min | 19.6 min | 22.5 min |  | 17.4 min | 17.5 min | 18.8 min | 18.9 min |  | 22.1 min |  |  | 22.4 min |  | 21.1 min |  |  | CCOC(=O)Cc1c[nH]c2ccccc12 [ETHYL 3-INDOLEACETATE]
10 |  |  |  |  | 0.9 min |  |  |  | 2.74 min |  |  | 1.09 min | 1.78 min | 14 min |  | 1.38 min | 1.35 min | NC(CCSSCCC(N)C(=O)O)C(=O)O (stereo unspecified) [HOMOCYSTINE]
11 | 9.2 min | 10.8 min | 13.7 min | 10.6 min | 9.27 min |  | 10.6 min | 10.7 min | 13.6 min | 13.8 min |  | 11.3 min | 13.3 min |  | 12.1 min |  |  | O=CCc1c[nH]c2ccccc12 [INDOLE-3-ACETALDEHYDE]
12 | 11.8 min | 13.6 min |  |  | 12 min | 12.8 min | 13.6 min |  | 17.3 min | 17.2 min |  | 14.4 min | 16.7 min |  | 15.3 min |  |  | N[C@@H](Cc1ccccc1)C(=O)O [L-PHENYLALANINE]
13 | 4.89 min | 7.63 min | 14.1 min | 10.1 min |  | 8.34 min | 7.08 min | 9.97 min | 11.2 min | 11.1 min |  | 8.41 min | 10.8 min |  | 9.28 min |  |  | NC(=O)[C@@H](N)Cc1c[nH]c2ccccc12 [L-TRYPTOPHANAMIDE]
14 | 15.3 min | 17.6 min | 20.9 min |  | 15.7 min | 16 min | 17.2 min | 17.2 min | 20.5 min | 20.5 min |  |  | 20.6 min |  | 19.3 min |  |  | COC(=O)Cc1c[nH]c2ccccc12 [METHYL INDOLE-3-ACETATE]
15 |  |  | 23.9 min | 20 min |  |  |  | 20.3 min | 23.2 min | 23.6 min |  |  | 24 min |  |  |  |  | CCC=CCC1C(=O)CCC1CC(=O)OC (stereo unspecified) [METHYL JASMONATE]
16 |  |  | 2.75 min | 1.8 min |  |  |  | 1.35 min |  |  |  |  |  | 16.2 min |  |  |  | Cc1ncc(CO)c(CN)c1O [PYRIDOXAMINE]
17 |  |  |  |  |  |  |  |  |  | 4.88 min |  |  |  |  |  |  |  | CC=CC=CC(=O)O [SORBATE]
18 |  | 0.9 min |  | 1.39 min |  | 0.91 min |  |  | 2.71 min |  |  | 1.06 min | 1.8 min |  |  | 1.36 min |  | O=C(O)C=Cc1cnc[nH]1 [UROCANATE]

Row | SMILES | LC retention time [1] | LC retention time [2] | LC retention time [3] | LC retention time [4] | LC retention time [5] | LC retention time [6] | LC retention time [7] | LC retention time [8] | LC retention time [9] | LC retention time [10] | LC retention time [11] | LC retention time [12] | LC retention time [13] | LC retention time [14] | LC retention time [15] | LC retention time [16] | LC retention time [17]
19 | CCCCC(CC)COC(=O)c1ccccc1C(=O)OCC(CC)CCCC (stereo unspecified) [BIS(2-ETHYLHEXYL)PHTHALATE] | 25.4 min | 30 min | 30.8 min |  | 26.4 min | 25.5 min | 26.7 min | 26.7 min | 30 min |  |  | 30.4 min | 32.3 min |  |  |  | 

Source: the RepoRT retention time repository (doi:10.1016/j.jchromb.2020.122105)
